Results taken from patent US20260097111A1, “ETHER LIPIDS FOR HYPERACTIVATION OF MAMMALIAN DENDRITIC CELLS” (priority 2022, published 2026).

Test system: human moDCs and autologous memory CD4+ T cells
Experiment: moDC and memory CD4+ T cell coculture, cytokine secretion and viability
Type: cell-based
Conditions: for IL-1β: MCC950 10 μM or anti-IL-1β 10 μg/mL added to R848+DGP where named, FIG. 36A
Method: Monocyte Isolation, Storage, and Differentiation into moDC.
Memory CD4+ T Cell Isolation. The CD14− fraction of the leukapheresis product was collected and used for further isolation of memory CD4+ T cells. First, approximately 5×10^9 total nucleated cells or less of the blood product were pelleted at 200×g for 10 min. The cells were resuspended in two 50 mL conical tubes each containing 25 mL in volume. Cells were then incubated with microbeads targeting red blood cells and granulocytes at 4° C. for 15 min. Cells were loaded on equilibrated MultiMACS columns using the “Deplete” program. Columns were washed twice with separation buffer and the flow-through of peripheral blood mononuclear cells (PBMCs) were collected and counted. The Memory CD4+ T Cell Isolation Kit from Miltenyi was then used to isolate memory CD4+ T cells from the PBMCs. After following the manufacturer's protocol for antibody and microbead incubations, cells were loaded onto equilibrated MultiMACS columns using the “Deplete” program. After 2 column washes using separation buffer, the negative fraction was collected and counted. An aliquot was stained to confirm the purity of the memory CD4 T cell population. […] Vials were placed in CoolCell freezing containers and placed in a −80° C. freezer for no longer than 1 week. Frozen cells were transferred for long-term storage to the vapor phase of a liquid nitrogen freezer until use.
Treatments of Cells For Analysis of Cytokine Secretion. Human moDCs were plated at 5×10^4 cells/well in 96-well U-bottom tissue culture plates in R10++ media by adding 50 μL of cells per well. To each well, 50 μL of memory CD4 T cells at 2.5×10^6 cells/mL was added. For control conditions where only moDC or only CD4 T cells were plated, the missing cells were replaced with an equivalent volume of R10++ media.
Lyophilized R848 stocks were prepared as described above and frozen at −80° C. for storage. An aliquot of frozen R848 was thawed and further diluted to 22.8 μM in R10++ (8 μg/mL R848). A portion of diluted R848 was combined with MCC950 to reach a concentration of 80 μM MCC950. Another portion of diluted R848 was combined with anti-IL-1β blocking antibody to reach a concentration of 80 μg/mL anti-IL-1β. Cell cultures received 25 μL of these mixes depending on desired treatment. For wells not receiving R848 treatment, an equivalent volume of R10++ media was added to wells. For these three chemicals, final concentrations in the wells were 2.85 μM R848, 10 μM MCC950, and 10 μg/mL anti-IL-1β.
A4.44% solution of KP407 dissolved in sterile, distilled water was prepared at a temperature of 4° C. DGP from powder was prepared by adding KP407 solution to lipid. […] Sterile 10×PBS was added to the solution resulting in a 1×PBS concentration. […]

Question: Which results are given for CC(C)(O)c1coc(S(=O)(=O)NC(=O)Nc2c3c(cc4c2CCC4)CCC3)c1 [MCC950, reference compound]?
Answer: IFNγ (coculture with anti-CD3, 2 days, MCC950 or anti-IL-1β added to R848+DGP where named, FIG. 37A): IFNγ production was significantly reduced; IL-1β (coculture, 2 days): IL-1β was significantly reduced

Question: Which results are given for CCCCCCCCCCCCCCCCCCCCCCOC[C@@H](O)COP(=O)(O)O [Compound 2, 1-docosyl-sn-glycerol-3-phosphate]?
Answer: production of IL-4, IL5, and IL-13 (coculture, 2 days, FIG. 38A-C): not elevated compared to unstimulated conditions; IL-1β (coculture, 2 days): minimal IL-1β was detected
